Values joined by “and” are separate entries in the source; they are usually repeats but may differ in a detail not shown here. Equal entries are not always repeated. Numbers after ± are expanded uncertainties.

These results are taken from the NIST ThermoML archive (doi:10.1016/j.jct.2013.06.007).

A short description of series [1]: Molar enthalpy of transition or fusion. As to conditions: Crystal; DSC.
For series [2] the following is noted: Crystal; DTA.

For `CCOC(=O)NCCOc1ccc(Oc2ccccc2)cc1` [fenoxycarb], in series [1], the “Molar enthalpy of transition or fusion” value is 6.75 kcal/mol and 6.39 kcal/mol. Further, in series [2], the Normal melting temperature is 53.47 ± 0.48 °C and 52.70 ± 0.87 °C.
